Experimental data taken from a melting point compilation (Tetko et al.; mined from patent text by program, amines drawn as free bases though some values may be those of a salt).

Compound | melting point
NC(=O)c1cnc(N)c([N+](=O)[O-])c1 | 289 to 290 °C
COC(=O)CCCc1cc2nc(Cl)ccc2n1S(=O)(=O)c1ccc(C)cc1 | 106 °C
O=C(O)c1cnc(-c2ccc(NC(=O)C(Cl)Cl)cc2)nc1O | > 310 °C
CCCCCCCCCCCCCCCCCNC(=O)O[C@@H]1CCCO[C@H]1COc1cc(CCCCO)on1 (relative stereo) | 86 to 87 °C
CCc1cccc2c3c([nH]c12)C(CC)(CC)OCC3 | 133 to 134 °C
CC(=O)Nc1ccc(OCC(O)CN2CCC(N3CCCNC3=O)CC2)cc1 (stereo unspecified) | 218 to 221 °C
C=CCOc1cc(C(=O)OCC)nc2c(CCC)c3oc(C(=O)OCC)cc(=O)c3cc12 | 151 to 153 °C
CC1(C(=O)c2c[nH]c3ncc(Br)nc23)CCCC1 | 207 to 208 °C
CS(=O)(=O)NC(=O)C1(CCCCCCCCCCCCC2(C(N)=O)CC2)CC1 | 119 to 120 °C
COC(=O)C1OC(c2ccccc2)OCC1(C)C (stereo unspecified) | 86.5 to 88 °C
CN1C(=O)[C@H](NC(=O)CCc2ccc(Cl)cc2Cl)N=C(c2ccccc2)c2cc(N)ccc21 | 179 to 180 °C
ClCCOc1cc(-c2cccs2)n[nH]1 | 134 to 138 °C
O=c1c(Br)cc2cnc(Nc3ccccn3)nc2n1C1CCCC1 | 273 to 275 °C
O=C(O)C(Cl)(Cl)CCCCCCCCCCC#Cc1ccccc1 | 155 to 157 °C
CCC(=O)N1N=C(c2ccc(N)c(C)c2)c2cc(Cl)ccc2C=C1C | 218 to 221 °C
CCCn1c(=O)c2c(nc(/C=C/c3ccc(OC)c4ccccc34)n2C)n(CCC)c1=O | 213 to 214 °C
COC(=O)c1ccc(OC)c([N+](=O)[O-])c1O | 185 to 187 °C
N#Cc1cc(-n2c3ccccc3[nH]c(=N)[nH]c3ccccc32)ccc1Cl | 225 to 228 °C
CC1(C)Oc2ccc(C(=O)CO)cc2[C@H](NC(=O)c2cc(F)cc(F)c2)[C@H]1O | 179 °C
COc1ccc2c(c1)C13CCCCC1(CC2)CCN3C (stereo unspecified) | 100 to 102 °C
CC(OCc1cc2nc(C(F)(F)F)ccc2n1S(=O)(=O)c1ccc2ncsc2c1)C(=O)O (stereo unspecified) | 124 °C
Cc1cc(Cl)c2[nH]nc(C)c2n1 | 176 to 178 °C
CCOc1c(C2=C(C(C)(C)C)C(C)(C)CO2)oc2ccc(OC)cc12 | 60 to 61 °C
CC1Cc2ccccc2C1=NO (stereo unspecified) | 82 to 91 °C

Compound | melting point
Cn1cc(-c2ccc3c(c2)C(C)(C)CCC3(C)C)cc1C=CC(=O)O | 165 to 166 °C
O=C(CC1CC1)N[C@H]1CC[C@H](CCN2CCN(c3nccc4c3OCC4)CC2)CC1 | 198 °C
Cn1ncc2nc3cccc(F)c3c(Cl)c21 | 269 °C
O=c1[nH][nH]c(=O)c2c(O)c3ccc(F)cc3nc12 | 228 °C
CC(C)S(=O)(=O)c1cc(OCCc2ccccn2)c2[nH]nc(Nc3cnccn3)c2c1 | 195 to 196 °C
Cc1cccc2c1NS(=O)(=O)N(C(C)C)C2=O | 124 °C
CCOC(=O)c1[nH]c2cc(Br)c(Cl)cc2c1-c1ccccc1F | 193 to 194 °C
c1ccc2[nH]c(SSCCSSc3nc4ccccc4[nH]3)nc2c1 | 190 to 192 °C
COCC(O)Cn1ncc([N+](=O)[O-])n1 (stereo unspecified) | 58.2 to 59 °C
Cc1cnc2c(C#N)c(C)nn2c1-c1cccnc1 | 207 to 209 °C
Cc1cc2c(cc1Cl)C=C(C(=O)O)C(C(F)(F)F)S2 (stereo unspecified) | 240 to 242 °C
CSc1cc(C)nc(SC)c1NC(=O)CCl | 190 to 192 °C
O=C(Nc1ccccc1)C1CSc2sccc2C1=O (stereo unspecified) | 155 to 158 °C
COc1ccc(C(=O)C2Cc3ccc(O)c(O)c3C2=O)cc1 (stereo unspecified) | 191 to 193 °C
Cc1cc(Cl)c2c(ccc3nc(C)[nH]c32)n1 | 314 to 330 °C
N#Cc1ccc(Cn2cncn2)cc1-c1ccc(OS(N)(=O)=O)c(Cl)c1 | 133 to 136 °C
CCN(CC)CCCN1C(=O)NC(Cc2c[nH]c3ccc(OC)cc23)C1=O (stereo unspecified) | 136 °C
COc1cc(Cl)c2nc(Cl)nc(O)c2c1OC | 252 to 253 °C
C/C=C\Cn1c(C(=O)c2cc(C)cc(C)c2)c(CC)c(=O)[nH]c1=O | 199 to 200 °C
COC(=O)c1cc(Cl)cc2c1OCCN2C | 91 to 92 °C
CC#Cc1cc(=O)n2nc(SCCCCCC)sc2n1 | 94 to 97 °C
Cc1cc2ncnn2nc1OCCC(C)(C)CCS(N)(=O)=O | 143 to 144 °C
Cc1cc(Br)cc(C)c1NC(=O)C(C)Br (stereo unspecified) | 187 to 189 °C
CC(CCCC(C)(C)C)C1CCC2C3C(=O)C=C4CC(O)CCC4(C)C3CCC12C (stereo unspecified) | 176 to 178 °C

Compound | melting point
N=C(N)Nc1ncc(Cl)c2ccc(C(=O)NCCC(=O)O)cc12 | 235 to 236 °C
N#Cc1ccc2c(c1)CCN(C1CCC3(CC1)OCCO3)C2 | 127 °C
COC(=O)/C=C/n1cnc2ccc(O)cc2c1=O | 252 to 256 °C
Clc1cc(Cl)cc(N=Cc2ccccc2)c1 | 52 to 53 °C
CCOC(=O)c1cc2c(=O)n(C)c3ccccc3n2c1 | 197 to 198 °C
O=S(=O)(NCCO)c1cccc(-c2cc(-c3nc(-c4ccc(C(F)(F)F)cc4)cc(C(F)(F)F)n3)ccn2)c1 | 192 °C
NP(N)(=O)NC(=O)c1ccc(F)cc1 | 255 to 257 °C
O=S(=O)(Nc1nccs1)c1ccc(Nc2nc(OCC3CCCCC3)c3nc[nH]c3n2)cc1 | 152 to 154 °C
CS(=O)(=O)c1ccc(CN2C(=O)C3(COc4cc5c(cc43)OCO5)c3ccccc32)o1 (stereo unspecified) | 177 to 179 °C
CCCOc1ccc(S(=O)(=O)N2CCN(C)CC2)cc1-c1cc2c(=O)n(C)c(=O)n(CCC)c2[nH]1 | 240 °C
N#Cc1cc([N+](=O)[O-])cc(C#N)c1N | 160 to 163 °C
CC(=O)NC1Cc2ccc(S(=O)(=O)Cl)cc2C1 (stereo unspecified) | 237 to 239 °C
CC(C)(C)NC(=O)c1ccc(Cl)c(C(F)(F)F)c1 | 131 °C
COc1ccc(CC#N)cc1S(=O)(=O)NC(C)(C)C | 146 to 147 °C
O=C1NC(=O)C2(c3ccccc3)CC1C2 | 217 to 218 °C
COc1ccc2nc3cc(OC)c(=O)c(Cl)c-3sc2c1 | 264 °C
Cc1cccc2nnc(-c3ccccc3)cc12 | 101 °C
CN(C(=O)c1ccc2nonc2c1)[C@H]1CC[C@@H](C#N)CC1 | 180 to 181 °C
Cc1cc(NC(=O)C(C)(O)COc2ccc(OCCBr)cc2)ccc1[N+](=O)[O-] (stereo unspecified) | 135 to 138 °C
c1ccc2c(c1)ncc1cncn12 | 175 to 179 °C
COc1ccc([C@@H]2CC(=O)N3C(=O)CC[C@H]23)cc1 (relative stereo) | 125 to 127 °C
Nc1ccc2c(c1)C(=O)C1(CCOC1=O)S2 (stereo unspecified) | 187 to 190 °C

Next, values leading:

melting point | Compound
301 to 302 °C | COc1ccc(-c2cnc(N3Cc4c([nH]c5ccccc5c4=O)C3C3Cc4ccccc4O3)nc2)cc1 (stereo unspecified)
145 to 147 °C | CNC(=O)N(C(=O)Nc1ccccc1)c1ccccc1
142 to 145 °C | COc1cc(C(=O)C=Cc2ccc(Br)cc2)ccc1OC1CCCCO1 (stereo unspecified)
174 to 177 °C | O=C(Nc1ccc2ccccc2c1C(=O)O)OCc1cc2cc(-c3ccccc3)ccc2o1
189 °C | CCOc1ccc(-c2c(Cl)ncn2-c2ccc(S(=O)(=O)NC(C)(C)C)cc2)cc1
95 °C | O=C(C=C(c1ccccc1)N1CNc2cccnc21)OCCC(OCCCc1ccc(Cl)cc1)C(=O)O (stereo unspecified)
135 to 139 °C | CCCc1c(OCc2ccccc2C(=O)NCCCCc2cccnc2)ccc(C(C)=O)c1O
134 to 136 °C | Nc1ccc(NNC(=O)c2ccccc2)cc1
141 to 142 °C | CC1(C)CC(=C(c2ccc(O)cc2)c2ccc(C#CCO)cc2)CC(C)(C)C1
159 to 162 °C | Cc1nc(-n2cc(CNc3ccccc3)nn2)sc1C(=O)NCc1ccccc1
71 to 78 °C | CC(C)(C)OC(=O)CC[C@H](NC(=O)c1ccc(NCc2cnc(N)c(C#N)n2)cc1)C(=O)OC(C)(C)C
127 to 128 °C | O=C1CCCCc2cc(OCc3ccccc3)c(O)cc21
97 to 101 °C | O=C(O)COc1cccc2c1Cc1sc(S(=O)(=O)CCCC(c3ccccc3)c3ccccc3)nc1-2
141 to 143 °C | CC(=O)Nc1ccc(OCCOC(=O)CCCNC(=O)c2cc(OCc3ccccc3)ccc2OCc2ccccc2)cc1
126 to 128 °C | COc1ccc(CN(C(=S)Nc2ccccc2)c2ccc(NNC(C)=O)cc2)cc1
276 to 278 °C | COCc1ccc(Cc2cccc(-c3c(O)c4ccc(Cl)cc4[nH]c3=O)c2)cc1

melting point | Compound
111 to 113 °C | COc1ccc(COC(=O)c2ccc(C(O)C(=O)O)cc2)cc1 (stereo unspecified)
106 to 108 °C | CCNc1cccnc1N1CCN(C(=O)c2ccc(C(=O)N(CC)CCO)cc2)CC1
75 to 78 °C | CC(C)C(NC(=O)C(NC(=O)C1CCCN1C(=O)OC(C)(C)C)C(Cc1ccccc1)C(=O)O)C(=O)NC(Cc1ccc(O)cc1)C(=O)OCc1ccccc1 (stereo unspecified)
102 to 106 °C | COc1ccc(CC(C(=O)Nc2nc3ccccc3o2)c2ccc(S(C)(=O)=O)cc2)cc1 (stereo unspecified)
141 to 142 °C | CNC(=S)N1CCSC1c1ccccc1OCCN1CCC(c2ccccc2)CC1 (stereo unspecified)
85 to 88 °C | CC(=O)SCC(Cc1ccccc1)C(=O)Nc1cccc(C(=O)OCCBr)c1 (stereo unspecified)
136 °C | Cc1nc(-c2ccc(C(F)(F)F)cc2)sc1C(C)(C)Oc1cccc(COC(C)(C)C(=O)O)c1
102 °C | O=C(NC(CS)Cc1ccccc1)N1CCCCCC1 (single isomer, unassigned; (+))
140 to 141 °C | CN(C)c1cc(NC(=O)c2ccccc2-c2ccc(C(F)(F)F)cc2)cnc1OCCCC1(C(=O)NCC(F)(F)F)c2ccccc2-c2ccccc21
222 to 226 °C | NC(=O)CCC(Nc1ccc2ccccc2n1)C(=O)O (stereo unspecified)
193 to 195 °C | Cc1cc2c(cc1C)C1(CO2)C(=O)N(C(c2ccccc2)c2ccccc2)c2ccccc21 (stereo unspecified)
136 to 147 °C | CC(C)C[C@H](NC(=O)C1(N)CCCCC1)C(=O)NCC(N)=O
98 to 99 °C | CCCn1nc(CO)cc1OCc1ccc2ccccc2n1
149 to 150 °C | Cc1c(CC(=O)O)oc2ccc(Cc3ccccc3)cc12
126 to 130 °C | CC(=O)Oc1ccc(C)cc1[C@H](CCN(C(C)C)C(C)C)c1ccccc1
